ChEMBL document CHEMBL1148897, “New natural products from the sponge-derived fungus Aspergillus niger” (J Nat Prod, 2004)
Activity calls are given as the source filed them. The rule behind the calls is not given here.

Assays:
Candida albicans [1] = experiment: Antimicrobial activity against Candida albicans at 100 ug/disk after 24 hrs by agar plate diffusion assay; assay type: functional, organism-based
Escherichia coli [2] = experiment: Antimicrobial activity against Escherichia coli at 50 ug/disk after 24 hrs by agar plate diffusion assay; assay type: functional, organism-based
Artemia salina [3] = experiment: Toxicity in Artemia salina at 10 ppm; assay type: organism-based; settings: in vivo
Candida albicans [4] = experiment: Antimicrobial activity against Candida albicans at 50 ug/disk after 24 hrs by agar plate diffusion assay; assay type: functional, organism-based
Staphylococcus aureus [5] = experiment: Antimicrobial activity against Staphylococcus aureus at 50 ug/disk after 24 hrs by agar plate diffusion assay; assay type: functional, organism-based
Staphylococcus aureus [6] = experiment: Antimicrobial activity against Staphylococcus aureus at 100 ug/disk after 24 hrs by agar plate diffusion assay; assay type: functional, organism-based
Escherichia coli [7] = experiment: Antimicrobial activity against Escherichia coli at 100 ug/disk after 24 hrs by agar plate diffusion assay; assay type: functional, organism-based
Bacillus subtilis [8] = experiment: Antimicrobial activity against Bacillus subtilis at 50 ug/disk after 24 hrs by agar plate diffusion assay; assay type: functional, organism-based
Artemia salina [9] = experiment: Toxicity in Artemia salina at 100 ppm; assay type: organism-based; settings: in vivo
Bacillus subtilis [10] = experiment: Antimicrobial activity against Bacillus subtilis at 1000 ug/disk after 24 hrs by agar plate diffusion assay; assay type: functional, organism-based
Cortical neurone [11] = experiment: Neuroprotective activity in Wistar rat cortical neuron assessed as reduction of quisqualic acid-induced intracellular calcium level at 1 ug/mL relative to control; assay type: functional; design: scale not given: the % may be the effect or the level left
Cortical neurone [12] = experiment: Neuroprotective activity in Wistar rat cortical neuron assessed as reduction of quisqualic acid-induced intracellular calcium level at 5 ug/mL relative to control; assay type: functional; design: scale not given: the % may be the effect or the level left
Cortical neurone [13] = experiment: Neuroprotective activity in Wistar rat cortical neuron assessed as reduction of L-glutamic acid-induced intracellular calcium level at 5 ug/mL relative to control; assay type: functional; design: scale not given: the % may be the effect or the level left
Cortical neurone [14] = experiment: Neuroprotective activity in Wistar rat cortical neuron assessed as reduction of L-glutamic acid-induced intracellular calcium level at 1 ug/mL relative to control; assay type: functional; design: scale not given: the % may be the effect or the level left
Spodoptera littoralis [15] = experiment: Insecticidal activity against Spodoptera littoralis larvae assessed as survival rate at 100 ppm in artificial diet after 7 days relative to control; assay type: functional
Spodoptera littoralis [16] = experiment: Insecticidal activity against Spodoptera littoralis larvae assessed as reduction of weight at 100 ppm in artificial diet after 7 days relative to control; assay type: functional; design: scale not given: the % may be the effect or the level left

Structure (SMILES)	Activity (Candida albicans [1])	Activity (Escherichia coli [2])	Activity (Artemia salina [3])	Activity (Candida albicans [4])	Activity (Staphylococcus aureus [5])	Activity (Staphylococcus aureus [6])	Activity (Escherichia coli [7])	Activity (Bacillus subtilis [8])	Activity (Artemia salina [9])	Activity (Bacillus subtilis [10])	Activity (Cortical neurone [11]) [%]	Activity (Cortical neurone [12]) [%]	Activity (Cortical neurone [13]) [%]	Activity (Cortical neurone [14]) [%]	Activity (Spodoptera littoralis [15]) [%]	Activity (Spodoptera littoralis [16]) [%]
COc1cc(C)c2c(OC)c(-c3c(O)c4c(C)cc(O)cc4oc3=O)c(=O)oc2c1	inactive	inactive	Non-toxic	inactive	inactive	inactive	inactive	inactive	Non-toxic	inactive	–	–	–	–	–	–
NC(=O)c1c[nH]c(=O)cc1Cc1ccccc1 [ASPERNIGRIN A]	inactive	inactive	Non-toxic	inactive	inactive	inactive	inactive	inactive	Non-toxic	inactive	–	–	–	–	–	–
COc1cc([C@H](Cc2ccccc2)n2cc(C(N)=O)c(Cc3ccccc3)cc2=O)oc(=O)c1 [ASPERNIGRIN B]	inactive	inactive	Non-toxic	inactive	inactive	inactive	inactive	inactive	Non-toxic	inactive	33.6	23.5	55	25.5	–	–
C/C=C/c1oc2c(c(=O)c1O)N[C@H](O)C2=O [PYRANONIGRIN A]	inactive	inactive	Non-toxic	inactive	inactive	inactive	inactive	inactive	Non-toxic	inactive	–	–	–	–	85	29
C/C=C/c1oc2c(OC)c(O)n(O)c2c(=O)c1O [PYRANONIGRIN B]	inactive	inactive	Non-toxic	inactive	inactive	inactive	inactive	inactive	Non-toxic	inactive	–	–	–	–	–	–
C/C=C/c1oc2c(O)c(OC)n(O)c2c(=O)c1O [PYRANONIGRIN C]	inactive	inactive	Non-toxic	inactive	inactive	inactive	inactive	inactive	Non-toxic	inactive	–	–	–	–	–	–
